Reference: article PMC6060874, “Alanine scan of sialorphin and its hybrids with opiorphin: synthesis, molecular modelling and effect on enkephalins degradation” (Amino Acids, 2018)

Key:
[1] = system: NEP enzyme extracted from porcine kidney; test: Degradation of Met-enkephalin incubated with NEP alone (without inhibitor); assay type: in vitro ADME; conditions: printed value is 1000 × k, Met-enkephalin 0.0413 mM, NEP 5.687 nM, Tris–HCl 50 mM pH 7.4, 37 °C, 0–120 min, RP-HPLC, mean ± SEM, triplicate
Procedure: (§1) The degradation studies were performed using the NEP enzyme extracted from porcine kidney, acquired from Merck (Warsaw, Poland). Solutions of Met-enkephalin, NEP and inhibitors were prepared by dissolving them in a Tris–HCl buffer (50 mM, pH 7.4). In investigated samples, the concentrations of Met-enkephalin, inhibitors and NEP were, respectively, 0.0413 mM, 0.156 mM and 5.687 nM. The reaction was initiated by addition of enzyme to a solution-containing Met-enkephalin and inhibitor. The samples consisting of the enzyme, Met-enkephalin and inhibitors were incubated over 0, 30, 60, 90, 120 min at 37 °C in a final volume of 300 μL. The reaction was stopped at a predetermined time by placing the tube on ice and acidifying with 30 μL of a 1 M aqueous HCl solution. The aliquots were centrifuged at 14,500 rpm for 20 min. The supernatants were filtered through Millipore Millex-GV syringe filters with 0.22 μm pores (Merck, Warsaw, Poland) and analysed by RP-HPLC on a Phenomenex Gemini-NX C18 column (5 μm, 4.6 mm × 150 mm) using a linear gradient of 3–50% of [B] for 8 min at a flow rate of 2.5 ml/min. Two solvent systems were used: 0.1% TFA in water [A] and 0.1% TFA in acetonitrile [B]. The rate constants of degradation (k) and degradation half-lives (t1/2) were calculated as described elsewhere (Kamysz et al. [2016]; Perlikowska et al. [2012]). All measurements were performed in triplicate. […]

NEP = test: as above; assay type: in vitro ADME, porcine; conditions: pig, NEP enzyme extracted from porcine kidney, Met-enkephalin 0.0413 mM, NEP 5.687 nM, Tris–HCl 50 mM pH 7.4, 37 °C, 0–120 min, RP-HPLC, mean ± SEM, triplicate, read-out: t1/2, half-life of Met-enkephalin incubated with NEP alone
Procedure: as §1

CSCC[C@H](NC(=O)[C@H](Cc1ccccc1)NC(=O)CNC(=O)CNC(=O)[C@@H](N)Cc1ccc(O)cc1)C(=O)O [Met-enkephalin, Met-enkephalin (Tyr–Gly–Gly–Phe–Met)]
1000 × k, degradation rate of Met-enkephalin incubated with NEP alone [1]: 25.3 ± 1.0 min⁻¹
half-life (NEP): 27 ± 1 min
